Reference: patent US20110313672A1, “CELLULAR ANTIOXIDANT ACTIVITY (CAA) ASSAY” (CORNELL UNIVERSITY, priority 2007, published 2011)

Assays:
[1] = in vitro; conditions: human
Method: (§1) Briefly, HepG2 cells are seeded at 4×10^4/well on a 96-well plate in 100 μL growth medium and incubated for 24 h at 37° C. The medium is removed and the cells are washed with PBS. Treatments of fruit extracts or antioxidant compounds in 100 μL treatment medium (Williams' Medium E supplemented with 2 mM L-glutamine and 10 mM Hepes) are applied to the cells and the plates are incubated at 37° C. for 24 h. The treatment medium is removed and the cells are washed with PBS. A volume of 50 μL/well methylene blue staining solution (98% HBSS, 0.67% glutaraldehyde, 0.6% methylene blue) is applied to each well and the plate is incubated at 37° C. for 1 h.
(§2) Excess dye is removed by immersing the plate in fresh deionized water until the water appears clear. The excess water should be tapped out of the wells and the plate allowed to air-dry briefly before addition of 100 μL elution solution (49% PBS, 50% ethanol, 1% acetic acid) to each well. The microplate is then placed on a bench-top shaker for 20 minutes to allow uniform elution. The absorbance is read at 570 nm with blank subtraction using, for example a MRX II DYNEX spectrophotometer (DYNEX Inc., Chantilly, Va.). Concentrations of pure compounds or fruit extracts that decrease the absorbance by more than 10% when compared to the control are considered to be cytotoxic.
(§3) Cytotoxicity was measured using the method of Oliver et al. (31) with modifications by our laboratory (32). […] The medium was removed and the cells were washed with PBS. Treatments of fruit extracts or antioxidant compounds in 100 μL treatment medium (Williams' Medium E supplemented with 2 mM L-glutamine and 10 mM Hepes) were applied to the cells and the plates were incubated at 37° C. for 24 h. The treatment medium was removed and the cells were washed with PBS. A volume of 50 μL/well methylene blue staining solution (98% HBSS, 0.67% glutaraldehyde, 0.6% methylene blue) was applied to each well and the plate was incubated at 37° C. for 1 h. The dye was removed and the plate was immersed in fresh deionized water three times, or until the water was clear. The water was tapped out of the wells and the plate was allowed to air-dry briefly before 100 μL elution solution (49% PBS, 50% ethanol, 1% acetic acid) was added to each well. The microplate was placed on a bench-top shaker for 20 minutes to allow uniform elution. The absorbance was read at 570 nm with blank subtraction using the MRX II DYNEX spectrophotometer (DYNEX Inc., Chantilly, Va.). Concentrations of pure compounds or fruit extracts that decreased the absorbance by more than 10% when compared to the control were considered to be cytotoxic.
(§4) The median cytotoxic concentration (CC50) was calculated for each fruit.
(§5) Briefly, HepG2 cells were seeded at 4×10^4/well on a 96-well plate in 100 μL growth medium and incubated for 24 h at 37° C. The medium was removed, and the cells were washed with PBS. Flavonoids in 100 μL growth medium were applied to the cells, and the plates were incubated at 37° C. for 24 h. The medium was removed, and the cells were washed with PBS before a volume of 50 μL/well methylene blue staining solution (98% HBSS, 0.67% glutaraldehyde, 0.6% methylene blue) was applied to each well, and the plate was incubated at 37° C. for 1 h. The dye was removed, and the plate was immersed in fresh deionized water until the water was clear. The water was tapped out of the wells, and the plate was allowed to air-dry briefly before 100 μL of elution solution (49% PBS, 50% ethanol, 1% acetic acid) was added to each well. The microplate was placed on a benchtop shaker for 20 min to allow uniform
(§6) elution. The absorbance was read at 570 nm with blank subtraction using the MRX II Dynex spectrophotometer (Dynex Inc., Chantilly, Va.). The median cytotoxic concentration (CC50) was calculated for each flavonoid.

[2] = tested on: HepG2 cells; test: in vitro; conditions: for CC50: read-out: cytotoxicity CC50, Example 3, median cytotoxic concentration
Method: as §1, §2, §3, §4, §5, §6

[3] = Example 1, dose at which the cell number is reduced by more than 10% after 24 h treatment

| Compound | CC50 at 24 h [1] [µM] | Cytotoxicity (cytotoxic concentration) ([2]; human, 24 h) [µM] | CC50 at 24 h ([1]; HepG2 cells) [µM] | further results |
| --- | --- | --- | --- | --- |
| O=C(O[C@@H]1Cc2c(O)cc(O)cc2O[C@@H]1c1ccc(O)c(O)c1)c1cc(O)c(O)c(O)c1 [ECG, (−)-epicatechin gallate] | > 200 | – | – | – |
| Oc1cc(O)c2c(c1)O[C@H](c1cc(O)c(O)c(O)c1)[C@H](O)C2 [EGC, (−)-epigallocatechin] | > 200 | – | – | – |
| O=c1c(O)c(-c2ccc(O)cc2)oc2cc(O)cc(O)c12 [Kaempferol, kaempferol] | > 100 | 30 | – | – |
| O=c1cc(-c2ccc(O)c(O)c2)oc2cc(O)cc(O)c12 [Luteolin, luteolin] | > 80 | 20 | – | – |
| O=c1c(O)c(-c2cc(O)c(O)c(O)c2)oc2cc(O)cc(O)c12 [Myricetin, myricetin] | > 200 | 200 | – | – |
| O=c1c(O[C@@H]2O[C@H](CO)[C@@H](O)[C@H](O)[C@H]2O)c(-c2ccc(O)c(O)c2)oc2cc(O)cc(O)c12 [Q-3-G, quercetin-3-β-D-glucoside] | – | – | – | CC50 ([2]; 24 h): > 200 µM |
| O=c1c(O)c(-c2ccc(O)c(O)c2)oc2cc(O)cc(O)c12 [Quercetin, quercetin] | > 100 | >20 | – | – |
| O=C1c2c(O)cc(O)cc2O[C@H](c2ccc(O)c(O)c2)[C@H]1O [Taxifolin, taxifolin] | – | – | > 200 | Cytotoxicity (cytotoxic concentration) [2, 3]: 150 µM |
| O=c1c(O)c(-c2ccccc2)oc2cc(O)cc(O)c12 [galangin] | – | – | > 80 | – |
| O=c1c(-c2ccc(O)cc2)coc2cc(O)cc(O)c12 [genistein] | > 100 | – | – | – |
| O=c1c(O)c(-c2ccc(O)cc2O)oc2cc(O)cc(O)c12 [morin] | – | – | > 200 | – |
| O=C1C[C@@H](c2ccc(O)cc2)Oc2cc(O)cc(O)c21 [naringenin] | – | – | > 200 | – |
| (−)-epigallocatechin gallate [EGCG] | – | – | – | Cytotoxicity (cytotoxic concentration) [2, 3]: >100 µM; CC50 ([2]; 24 h): > 100 µM |
